Reference: the supplement of paper PMC10307832

Assays:
Experiment in all cases: relative viability (nuclei count vs DMSO), 5 days (fraction); higher = more cells survive
Bromopyruvate + AZD7762 = compound: C(C(=O)C(=O)O)Br [Bromopyruvate] + NC(=O)Nc1cc(-c2cccc(F)c2)sc1C(=O)N[C@H]1CCCNC1 [AZD7762] (partner 0.2 µM)
Outline: (§1)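 Cells from lung cancer lines were seeded into 1536-well plates and, one day later, dosed by pin tool. Treatments were either a single drug or a fixed dose of an anchor drug with five library-drug doses (not always all listed) in √10 steps. After 5 days, nuclei were stained in a one-step fixation (final 0.05% Triton X-100, 1% formaldehyde, 1 ug/ml Hoechst) and counted on 4× images, and relative viability is the treated-to-vehicle nuclei ratio, as the median of duplicate plates.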

[1] = compound: C(C(=O)C(=O)O)Br [Bromopyruvate] + CC(=O)c1c(C)c2cnc(Nc3ccc(N4CCNCC4)cn3)nc2n(C2CCCC2)c1=O [Palbociclib] (partner 0.5 µM)
Outline: as §1

[2] = compound: CC(O)(CS(=O)(=O)c1ccc(F)cc1)C(=O)Nc1ccc(C#N)c(C(F)(F)F)c1 [Bicalutamide] + CC(=O)c1c(C)c2cnc(Nc3ccc(N4CCNCC4)cn3)nc2n(C2CCCC2)c1=O [Palbociclib] (partner 0.5 µM)
Outline: as §1

[3] = compound: C(C(=O)C(=O)O)Br [Bromopyruvate] + CCNC(=O)c1noc(-c2cc(C(C)C)c(O)cc2O)c1-c1ccc(CN2CCOCC2)cc1 [Luminespib] (partner 0.01 µM)
Outline: as §1

Row | Cell Line | relative viability (Bromopyruvate + AZD7762; first compound 1 µM) | relative viability (Bromopyruvate + AZD7762; first compound 3.162 µM) | relative viability (Bromopyruvate + AZD7762; first compound 10 µM) | relative viability (Bromopyruvate + AZD7762; first compound 31.62 µM) | relative viability (Bromopyruvate + AZD7762; first compound 100 µM) | relative viability ([1]; first compound 1 µM) | relative viability ([1]; first compound 3.162 µM) | relative viability ([1]; first compound 10 µM) | relative viability ([1]; first compound 31.62 µM) | relative viability ([1]; first compound 100 µM) | relative viability ([2]; first compound 0.08 µM) | relative viability ([2]; first compound 0.253 µM) | relative viability ([2]; first compound 0.8 µM) | relative viability ([2]; first compound 2.53 µM) | relative viability ([3]; first compound 1 µM) | relative viability ([3]; first compound 3.162 µM) | relative viability ([3]; first compound 10 µM) | relative viability ([3]; first compound 31.62 µM) | relative viability ([3]; first compound 100 µM)
1 | BEN | 0.806 | 0.662 | 0.743 | 0.613 | 0.619 | 0.457 | 0.449 | 0.505 | 0.497 | 0.486 | 0.442 | 0.438 | 0.526 | 0.496 | 0.587 | 0.342 | 0.66 | 0.303 | 0.295
2 | NCI-H1666 | 0.966 | 0.843 | 0.878 | 0.872 | 0.766 | 0.618 | 0.632 | 0.64 | 0.622 | 0.599 | 0.652 | 0.603 | 0.652 | 0.675 | 1.08 | 1.14 | 0.989 | 1.04 | 0.844
3 | LC-2-ad | 0.885 | 0.863 | 0.881 | 0.812 | 0.799 | 0.528 | 0.487 | 0.466 | 0.488 | 0.499 | 0.475 | 0.473 | 0.464 | 0.516 | 1.02 | 1.11 | 1.21 | 1.04 | 0.843
4 | ChaGo-K-1 | 0.881 | 0.868 | 0.874 | 0.866 | 0.92 | 0.93 | 0.947 | 0.979 | 0.87 | 0.876 | 0.933 | 0.849 | 1.04 | 0.961 | 0.565 | 0.697 | 0.646 | 0.705 | 0.417
5 | NCI-H1975 | 0.825 | 0.691 | 0.721 | 0.785 | 0.703 | 0.66 | 0.619 | 0.566 | 0.551 | 0.569 | 0.627 | 0.532 | 0.688 | 0.492 | 0.227 | 0.286 | 0.084 | 0.255 | 0.253
6 | NCI-H2347 | 0.751 | 0.79 | 0.754 | 0.711 | 0.773 | 0.44 | 0.493 | 0.399 | 0.405 | 0.448 | 0.473 | 0.468 | 0.446 | 0.399 | 0.783 | 0.522 | 0.686 | 0.401 | 0.702
7 | EMC-BAC-2 | 1.04 | 1.16 | 1.09 | 1.04 | 1.1 | 0.434 | 0.546 | 0.554 | 0.506 | 0.533 | 0.532 | 0.502 | 0.543 | 0.437 | 0.993 | 1.24 | 1.29 | 1.22 | 1.22
8 | NCI-H3122 | 1.03 | 0.967 | 1.04 | 0.989 | 0.921 | 0.167 | 0.202 | 0.197 | 0.178 | 0.13 | 0.193 | 0.183 | 0.201 | 0.181 | 0.0847 | 0.0952 | 0.105 | 0.0703 | 0.0612
9 | NCI-H358 | 0.656 | 0.578 | 0.609 | 0.505 | 0.555 | 0.113 | 0.132 | 0.168 | 0.127 | 0.142 | 0.147 | 0.141 | 0.14 | 0.125 | 0.429 | 0.397 | 0.554 | 0.322 | 0.31
10 | NCI-H1944 | 0.579 | 0.521 | 0.576 | 0.514 | 0.54 | 0.32 | 0.333 | 0.335 | 0.319 | 0.311 | 0.335 | 0.299 | 0.354 | 0.323 | 0.716 | 0.785 | 0.967 | 0.7 | 0.734
11 | NCI-H2342 | 0.397 | 0.436 | 0.451 | 0.47 | 0.481 | 0.487 | 0.55 | 0.476 | 0.485 | 0.458 | 0.526 | 0.519 | 0.726 | 0.523 | 0.756 | 0.775 | 0.661 | 0.57 | 0.531
12 | EPLC-272H | 0.236 | 0.205 | 0.346 | 0.313 | 0.258 | 0.321 | 0.372 | 0.386 | 0.31 | 0.362 | 0.328 | 0.313 | 0.341 | 0.295 | 0.28 | 0.183 | 0.249 | 0.2 | 0.211
13 | NCI-H1915 | 0.699 | 0.681 | 0.671 | 0.661 | 0.689 | 0.524 | 0.532 | 0.538 | 0.514 | 0.56 | 0.534 | 0.463 | 0.595 | 0.473 | 0.673 | 0.849 | 0.925 | 0.706 | 0.781
14 | NCI-H647 | 0.565 | 0.63 | 0.405 | 0.553 | 0.568 | 0.4 | 0.312 | 0.466 | 0.386 | 0.506 | 0.415 | 0.381 | 0.503 | 0.385 | 0.203 | 0.306 | 0.108 | 0.109 | 0.4
15 | NCI-H441 | 1.01 | 1.18 | 1.06 | 0.978 | 1.14 | 0.242 | 0.242 | 0.256 | 0.222 | 0.255 | 0.33 | 0.142 | 0.24 | 0.202 | 0.445 | 0.505 | 0.323 | 0.524 | 0.38
16 | NCI-H23 | 0.27 | 0.22 | 0.249 | 0.206 | 0.251 | 0.466 | 0.482 | 0.601 | 0.572 | 0.387 | 0.529 | 0.503 | 0.515 | 0.471 | 0.216 | 0.182 | 0.238 | 0.203 | 0.201
17 | NCI-H522 | 0.874 | 0.861 | 0.821 | 1.05 | 0.755 | 1.02 | 1.03 | 1 | 1.02 | 1.1 | 0.949 | 1.11 | 1.11 | 0.894 | 1.07 | 1.16 | 1.11 | 1.28 | 1.29
18 | NCI-H650 | 0.931 | 1.18 | 0.934 | 1.05 | 0.945 | 0.385 | 0.306 | 0.316 | 0.338 | 0.335 | 0.372 | 0.345 | 0.397 | 0.267 | 0.887 | 0.723 | 0.791 | 0.704 | 0.724
19 | NCI-H2170 | 0.923 | 0.989 | 1.19 | 0.893 | 0.854 | 0.365 | 0.421 | 0.389 | 0.396 | 0.411 | 0.378 | 0.34 | 0.438 | 0.397 | 0.75 | 0.979 | 0.689 | 0.574 | 0.583
20 | NCI-H2087 | 1.19 | 1.4 | 1.36 | 1.2 | 1.32 | 0.222 | 0.232 | 0.19 | 0.221 | 0.227 | 0.222 | 0.272 | 0.237 | 0.24 | 0.141 | 0.176 | 0.16 | 0.175 | 0.161
21 | NCI-H838 | 0.914 | 0.913 | 1.02 | 0.949 | 0.935 | 0.19 | 0.251 | 0.229 | 0.237 | 0.242 | 0.225 | 0.195 | 0.256 | 0.179 | 0.282 | 0.359 | 0.456 | 0.324 | 0.282
22 | NCI-H460 | 0.676 | 0.698 | 0.721 | 0.565 | 0.621 | 0.161 | 0.247 | 0.148 | 0.196 | 0.186 | 0.171 | 0.185 | 0.193 | 0.102 | 0.0351 | 0.0317 | 0.0297 | 0.0334 | 0.0363
23 | LOU-NH91 | 0.801 | 0.755 | 0.742 | 0.771 | 0.837 | 0.53 | 0.545 | 0.494 | 0.544 | 0.587 | 0.449 | 0.548 | 0.553 | 0.541 | 0.321 | 0.316 | 0.372 | 0.348 | 0.321
24 | NCI-H322M | 0.623 | 0.58 | 0.523 | 0.581 | 0.628 | 0.463 | 0.438 | 0.447 | 0.421 | 0.454 | 0.515 | 0.482 | 0.464 | 0.524 | 0.821 | 0.977 | 0.891 | 0.879 | 0.747
25 | NCI-H727 | 0.664 | 0.582 | 0.635 | 0.521 | 0.53 | 0.702 | 0.654 | 0.663 | 0.646 | 0.648 | 0.647 | 0.645 | 0.693 | 0.635 | 0.277 | 0.571 | 0.218 | 0.377 | 0.592
26 | NCI-H1793 | 0.452 | 0.536 | 0.484 | 0.428 | 0.522 | 0.291 | 0.354 | 0.325 | 0.365 | 0.341 | 0.265 | – | 0.423 | 0.382 | 0.207 | 0.148 | 0.145 | 0.218 | 0.303
27 | NCI-H1734 | 0.536 | 0.7 | 0.694 | 0.53 | 0.544 | 0.349 | 0.378 | 0.39 | 0.34 | 0.295 | 0.332 | 0.283 | 0.379 | 0.328 | 0.174 | 0.225 | 0.212 | 0.175 | 0.201
28 | LXF-289 | 1.07 | 1.12 | 1.08 | 1.07 | 1.26 | 0.625 | 0.649 | 0.629 | 0.637 | 0.638 | 0.596 | 0.543 | 0.614 | 0.592 | 0.744 | 0.71 | 0.779 | 0.808 | 0.753
